One data set deals with NAP1 spores. The experiment in a line: Phase-contrast microscope spore count assay. The data set is classed as cell-based, Clostridium difficile.
Another data set relates to Caco-2 monolayers. Conditions: cited from earlier work.
Data set [1] has as its system Caco-2 cell monolayer. As to the kind of experiment: Caco-2 cell monolayer bidirectional permeability assay. Conditions: 10 μM. (In general: Caco-2 cells form a polarised layer with tight junctions and transporters.)
In data set [2] the test system is Caco-2 cell monolayer.
A further data set relates to NAP1 C. difficile spores. As to the kind of experiment: Optical density. The class given is cell-based, Clostridium difficile.
Data set [3] addresses C. difficile spore germination. The class given is cell-based, Clostridium difficile. Conditions: inhibitor evaluated at 0.2 mM, varying TCA; average of three experiments ± SEM.
Another data set deals with ATCC strain 630. Conditions: murine infection model, strain ATCC 630; cited from earlier work.
Setting [4] is: 10 μM compound, 2000 μM TCA, after 20 min, mean ± SD, N = 3.

“And” between values parts separate entries of the source, which are not always exact repeats. Equal entries are not always repeated. Where two headings read alike, the source gives them in different places.

Take `CO[C@@H]1CC[C@@]2(C)[C@@H](C1)C[C@H](OC)[C@@H]1[C@@H]2CC[C@]2(C)[C@@H]([C@H](C)CCC(=O)O)CC[C@@H]12` [6b, (R)-4-((3R,5S,7S,8R,9S,10S,13R,14S,17R)-3,7-Dimethoxy-10,13-dimethylhexadecahydro-1H-cyclopenta[a]-phenanthren-17-yl)pentanoic Acid]: the “Percent Spore Germination t20” value in the data set on NAP1 spores (setting [4]) is 71 ± 2%.

Consider `C[C@H](CCC(=O)NCCS(=O)(=O)O)[C@H]1CC[C@H]2[C@@H]3[C@H](O)C[C@@H]4C[C@H](O)CC[C@]4(C)[C@H]3C[C@H](O)[C@]12C` [TCA, taurocholic acid], for which, in the data set with Caco-2 monolayers, the transport ratio result is listed as “greater than 10”.

In the case of `COC(=O)CC[C@@H](C)[C@H]1CC[C@H]2[C@@H]3[C@H](O)C[C@@H]4C[C@H](O)CC[C@]4(C)[C@H]3CC[C@]12C` [2a, methyl (R)-4-((3R,5S,7R,8R,9S,10S,13R,14S,17R)-3,7-dihydroxy-10,13-dimethylhexadecahydro-1H-cyclopenta[a]phenanthren-17-yl)pentanoate, reference compound], the “Percent Spore Germination t20” value in the data set with NAP1 spores (setting [4]) was 71 ± 1%.

For orientation: Ki means the equilibrium dissociation constant of an inhibitor or competing ligand from its target. A lower Ki goes with a stronger hold on the target. Turning to “sodium 5-((R)-3-((3R,5R,7R,8R,9S,10S,13R,14S,17R)-7-hydroxy-3-methoxy-10,13-dimethyl-hexadecahydro-1H-cyclopenta[a]phenanthren-17-yl)butyl)-tetrazol-1-ide [37a]”, the “fold greater permeability in the A–B direction than C7-sulfated analogue 38a” value in the data set with Caco-2 cell monolayer [1] is given as “over 25 times”. Also, in the data set with Caco-2 cell monolayer [2], the “mean permeability A–B” value is given as 10.7 10^−6 cm/s and the “mean permeability B–A” value is reported as 1.9 10^−6 cm/s. For the same compound, in the data set with NAP1 C. difficile spores, the “Concentration Required for Complete Inhibition” value was found to be 5 µM. Besides, in the data set on NAP1 spores, the “Percent Spore Germination t0” value was 20% and 16 ± 4%; the “Percent Spore Germination t20” value was found to be 25%. In data set [3], this compound yielded a Ki of 17.9 ± 4.6 µM.

For “sodium 5-((R)-3-((3R,5S,7R,8R,9S,10S,13R,14S,17R)-3-methoxy-10,13-dimethyl-7-(sulfonatooxy)hexadecahydro-1H-cyclopenta[a]phenanthren-17-yl)-butyl)tetrazol-1-ide [38a]”, in the data set on Caco-2 cell monolayer [2], the “mean permeability A–B” value is listed as 0.4 10^−6 cm/s and the “mean permeability B–A” value is on record as 0.4 10^−6 cm/s. In addition, in the data set with NAP1 spores, the “Percent Spore Germination t0” value stood at 20 ± 11% and the “Percent Spore Germination t20” value is 48 ± 11%.

As for “sodium 5-((R)-3-((3R,5S,7R,8R,9S,10S,13R,14S,17R)-3,7-dihydroxy-10,13-dimethylhexadecahydro-1H-cyclopenta[a]phenanthren-17-yl)butyl)tetrazol-1-ide [35a]”, the “Concentration Required for Complete Inhibition” value with NAP1 C. difficile spores is 10 µM. In addition, in the data set on NAP1 spores, the “Percent Spore Germination Relative to control” value was 12% and 12 ± 6%; the “Percent Spore Germination t0” value was 15 ± 6%; the “Percent Spore Germination t20” value was found to be 22 ± 6%.

As to `C[C@H](CCC(=O)Nc1cccc(S(=O)(=O)O)c1)[C@H]1CC[C@H]2[C@@H]3[C@H](O)C[C@@H]4C[C@H](O)CC[C@]4(C)[C@H]3C[C@H](O)[C@]12C` [compound 3, reference compound], the “Effect on CDI symptoms” value in the data set on ATCC strain 630 is “eradicated CDI symptoms”. Also, the “Percent Spore Germination t20” value with NAP1 spores (setting [4]) is 74 ± 2%.

On to `CO[C@@H]1CC[C@@]2(C)[C@@H](C1)C[C@H](OS(=O)(=O)[O-])[C@@H]1[C@@H]2CC[C@]2(C)[C@@H]([C@H](C)CCC(=O)N3CCCC3)CC[C@@H]12.[Na+]` [21b, Sodium (3R,5S,7S,8R,9S,10S,13R,14S,17R)-3-Methoxy-10,13-dimethyl-17-((R)-5-oxo-5-(pyrrolidin-1-yl)pentan-2-yl)-hexadecahydro-1H-cyclopenta[a]phenanthren-7-yl Sulfate], for which the “Percent Spore Germination t20” value in the data set on NAP1 spores (setting [4]) came out at 30 ± 6%. Also, in the data set with NAP1 spores (10 μM compound, 2000 μM TCA, time 0, mean ± SD, N = 3), the “Percent Spore Germination t0” value turned out to be 18 ± 2%. Also, the “Inhibition of spore germination at 50 μM” value in the data set on NAP1 spores (50 μM compound, 2000 μM TCA (Table S1)) is “complete inhibition of spore germination”.

Values taken from PMC5877410 (Journal of medicinal chemistry, 2017).
